Results on two compounds are retold here after ChEMBL document CHEMBL2057107, “Synthesis and evaluation of aplysinopsin analogs as inhibitors of human monoamine oxidase A and B” (Bioorg Med Chem Lett, 2012).

In assay [1] the target is T1, Amine oxidase [flavin-containing] B (Homo sapiens, UniProt P27338).
T1 sequence (P27338 whole entry): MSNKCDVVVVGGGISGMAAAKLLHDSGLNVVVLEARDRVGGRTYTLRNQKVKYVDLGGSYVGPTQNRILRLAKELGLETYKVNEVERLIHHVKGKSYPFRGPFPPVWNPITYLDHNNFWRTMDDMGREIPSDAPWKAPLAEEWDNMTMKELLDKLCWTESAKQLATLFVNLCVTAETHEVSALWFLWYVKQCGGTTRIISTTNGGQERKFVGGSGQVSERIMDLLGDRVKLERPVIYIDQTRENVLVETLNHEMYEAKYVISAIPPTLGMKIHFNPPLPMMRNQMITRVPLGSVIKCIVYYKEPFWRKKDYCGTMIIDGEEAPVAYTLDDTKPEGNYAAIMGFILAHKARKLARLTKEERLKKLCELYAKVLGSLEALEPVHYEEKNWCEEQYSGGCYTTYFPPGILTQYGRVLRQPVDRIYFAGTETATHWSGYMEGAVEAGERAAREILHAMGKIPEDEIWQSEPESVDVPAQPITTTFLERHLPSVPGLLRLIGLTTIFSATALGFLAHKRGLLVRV
The experiment in a line: Inhibition of human recombinant MAO-B using kynuramine as substrate preincubated with compound for 15 mins measured after 20 mins by fluorometric analysis.

In assay [2] the target is T2, Amine oxidase [flavin-containing] A (Homo sapiens, UniProt P21397).
T2 sequence (P21397 whole entry): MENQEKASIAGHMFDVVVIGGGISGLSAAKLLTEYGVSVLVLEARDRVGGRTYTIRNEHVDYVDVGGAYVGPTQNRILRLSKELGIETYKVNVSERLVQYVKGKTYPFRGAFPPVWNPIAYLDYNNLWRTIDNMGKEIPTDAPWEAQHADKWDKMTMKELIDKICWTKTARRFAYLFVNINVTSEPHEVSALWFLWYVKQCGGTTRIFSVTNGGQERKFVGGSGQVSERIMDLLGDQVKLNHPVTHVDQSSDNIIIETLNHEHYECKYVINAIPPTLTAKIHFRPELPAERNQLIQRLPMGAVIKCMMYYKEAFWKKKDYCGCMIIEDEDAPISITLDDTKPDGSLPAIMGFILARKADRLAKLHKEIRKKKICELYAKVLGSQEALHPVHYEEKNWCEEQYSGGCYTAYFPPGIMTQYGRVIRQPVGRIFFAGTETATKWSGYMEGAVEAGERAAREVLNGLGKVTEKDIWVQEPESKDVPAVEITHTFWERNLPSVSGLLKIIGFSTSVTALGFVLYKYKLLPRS
The experiment in a line: Inhibition of human recombinant MAO-A using kynuramine as substrate preincubated with compound for 15 mins measured after 20 mins by fluorometric analysis.

Assay [3] is filed under the species Homo sapiens. The experiment in a line: Selectivity ratio of IC50 for human recombinant MAO-B to IC50 for human recombinant MAO-A.

The IC50 is the concentration that gives 50% inhibition. For the compound `N=C1NC(=O)/C(=C/c2c[nH]c3ccc(Br)cc23)N1`, the figures for the half-inhibitory concentration (IC50) in assay [1] and in assay [2] were 11.3 µM and 5.87 µM, respectively. Moreover, the Ratio IC50 in assay [3] is 1.93.

For `CN1C(=N)N/C(=C\c2c[nH]c3c(Br)cccc23)C1=O`, the values for the IC50 in assay [1] and in assay [2] were 14.3 µM and 1.2 µM, respectively. Moreover, the Ratio IC50 in assay [3] was found to be 11.9.
